The values below come from publication PMC7450530 (Biochemistry, 2019).

Test [1] concerns the target T1, E. coli GyrA^S83L gyrase (Escherichia coli, UniProt P0AES4, S83L). In kind it is biochemical.
Test [2] concerns the target T2, E. coli wild-type topoisomerase IV (Escherichia coli, UniProt P0AFI2). In kind it is biochemical. Particulars: read-out: IC50, inhibition of DNA decatenation.
The target in test [3] is T3, M. tuberculosis wild-type gyrase (Mycobacterium tuberculosis, UniProt P9WG47). In kind it is biochemical.
The target in test [4] is T2, E. coli wild-type topoisomerase IV. The class given is biochemical.
The target of test [5] is T4, E. coli ParC^S80L topoisomerase IV (Escherichia coli, UniProt P0AFI2, S80L). The class given is biochemical.
The target of test [6] is T5, E. coli wild-type gyrase (Escherichia coli, UniProt P0AES4). In kind it is biochemical.
The target of test [7] is T6, B. anthracis wild-type gyrase (Bacillus anthracis, UniProt A0A6H3A7B1). In kind it is biochemical. Particulars: read-out: IC50, inhibition of DNA supercoiling.
Test [8] addresses T6, B. anthracis wild-type gyrase. In kind it is biochemical.
Test [9] addresses T5, E. coli wild-type gyrase. The class given is biochemical. Particulars: read-out: IC50, inhibition of DNA supercoiling.
Test [10] addresses T3, M. tuberculosis wild-type gyrase. In kind it is biochemical. This is another data set of the same source.
For test [11], the target named is T1, E. coli GyrA^S83L gyrase. The class given is biochemical. The source holds these as a separate data set.
Test [12] has as its target T7, B. anthracis wild-type topoisomerase IV (Bacillus anthracis, UniProt A0A6H3AG07). In kind it is biochemical. The note with it: read-out: IC50, inhibition of DNA decatenation.
Test [13] deals with E. coli. The note with it: cited from earlier work.
Test [14] deals with T4, E. coli ParC^S80L topoisomerase IV. The class given is biochemical. The note with it: read-out: IC50, inhibition of DNA decatenation.
In test [15] the test system is Mycobacterium tuberculosis. The note with it: cited from earlier work.
For test [16], the target named is T7, B. anthracis wild-type topoisomerase IV. The class given is biochemical.
Test [17] concerns gyrase. The note with it: cited from earlier work.
[18] abbreviates: read-out: EC50, enhancement of single-stranded DNA cleavage.

For orientation: IC50 means the concentration at which inhibition is half-maximal. As a reminder, the EC50 is the concentration that produces a half-maximal response. Take `CC[C@H](C)n1cc(C)c2c(C(=O)NCc3c(C)cc(C)[nH]c3=O)cc(-c3ccc(N4CCNCC4)nc3)cc21` [GSK126]: in test [1], the “fold more potent in supercoiling inhibition than against wild-type enzyme” value is recorded as 5–10 fold. Besides, the 50% inhibitory concentration (IC50) was approximately 1400 nM in test [2]; approximately 400 nM in [7]; approximately 2000 nM in test [9]; approximately 75000 nM in [10] (read-out: IC50, inhibition of DNA supercoiling); approximately 2300 nM in test [12]; approximately 1400 nM in test [14]. For the same compound, the “induction of double-stranded DNA breaks” value in [3], in test [6] and in test [8] was “no ability to induce double-stranded breaks” each time. For the same compound, the “ability to induce DNA cleavage in the presence of ATP” value in test [4] is on record as “marginal”. Moreover, the “enhancement of double-stranded DNA breaks” value in test [4] and in test [16] was “no enhancement of double-stranded breaks was observed” throughout. In addition, the EC50 in test [4] (setting [18]) and in test [16] (setting [18]) was less than 500 nM throughout. For the same compound, the “induction of DNA cleavage” value in test [5] is recorded as “ineffective at inducing DNA cleavage”. Moreover, the “levels of single-stranded DNA cleavage in the presence of ATP vs absence” value in [6] is on record as “considerably lower”. For the same compound, the “maximal decrease of supercoiling activity” value in test [10] was determined as 60%. For the same compound, the “enhancement of DNA cleavage” value in test [11] is “no ability to enhance DNA cleavage”. The “Minimal Inhibitory Concentration” value in test [13] is 0.26 µM. Also, the “activity against the bacterium in a screen” value in [15] was “moderate activity”.

Take `COc1ccc2ncc(C#N)c(CCN3CCC(NCc4cc5c(cn4)OCS5)CC3)c2c1` [GSK299423]: in test [17], the “type of gyrase-mediated DNA breaks induced” value was “induces only gyrase-mediated single-stranded DNA breaks”.

Turning to `O=c1ccc2ncc(=O)n3c2n1C[C@H]3CN1CCC(NCc2cc3c(cn2)OCCC3)CC1` [gepotidacin], the “type of gyrase-mediated DNA breaks induced” value in [17] was “induces only gyrase-mediated single-stranded DNA breaks”.
